Numbers after ± are expanded uncertainties.
Conditions: Liquid; pulse-heating method

SMILES | Critical pressure | Critical temperature
O=C(O)CCc1ccccc1 [3-phenylpropanoic acid] | 3460 ± 120 kPa | 776 ± 8 K
O=C(O)CCCCCc1ccccc1 [6-phenylhexanoic acid] | 2600 ± 90 kPa | 794 ± 8 K
O=C(O)CCCCCCc1ccccc1 [7-phenylheptanoic acid] | 2470 ± 90 kPa | 798 ± 8 K
O=C(O)Cc1ccccc1 [phenylacetic acid] | 3950 ± 140 kPa | 766 ± 8 K
O=C(O)CCCc1ccccc1 [4-phenylbutanoic acid] | 3210 ± 110 kPa | 783 ± 8 K
O=C(O)CCCCc1ccccc1 [5-phenylvaleric acid] | 2950 ± 100 kPa | 790 ± 8 K

Reference: the NIST ThermoML archive (doi:10.1021/je060078g)
